Experimental data taken from patent US20050250137A1, “Molecular targets of cancer and aging” (priority 2002, published 2005).

Tested on: LFS cells
Experiment: poly (I:C) stimulation of LFS cells, STAT1α and IFNβ gene expression
Type: cell-based, human
Settings: poly (I:C) treatment

Question: How did the “STAT1α and IFNβ gene expression” value (MDAH041-PC) turn out when poly (I:C) was run?
Answer: induced

Question: And the “STAT1α and IFNβ gene expression” value (MDAH087-1)?
Answer: no induction

Question: And the “STAT1α and IFNβ gene expression” value (MDAH087-10)?
Answer: no induction

Question: And the “STAT1α and IFNβ gene expression” value (MDAH087-N)?
Answer: induced

Question: What about the “STAT1α and IFNβ gene expression” value (MDAH087-PC) of the same substance?
Answer: induced

Question: And the “STAT1α and IFNβ gene expression” value (immortal MDAH041)?
Answer: induced
